This note sets out measurements from patent US20230295212A1 (ROME Therapeutics, Inc., priority 2022, published 2023).

The term IC50 denotes the concentration that gives 50% inhibition. A low value points to greater potency in that assay.

Molecules are shown by their SMILES.

For data set [1], the target named is T1, LINE1 reverse transcriptase (Homo sapiens, UniProt O00370).
T1 construct: expressed in transfected cells; host or cells: HeLa Tet-On 3G (Takara, cat no 631183)
Nature of the data set: Stable artificial-intron Cis LINE1 reporter assay (HeLa Tet-On 3G, Firefly luciferase). Format: cell-based. As to conditions: HeLa L1 artificial-intron reporter cells, doxycycline 500 ng/mL, 72 h, class symbols. Summed up:
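HeLa Tet-On 3G clone stably carrying a bi-directional doxycycline-inducible artificial-intron LINE1 reporter, plated at 8,000 cells/well onto serially diluted compound. Expression induced with 500 ng/mL doxycycline (final); Firefly luciferase luminescence (Dual-Glo) read 72 h after plating as LINE1 activity.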
(In a reporter assay the amount or activity of a reporter protein is the signal.)

The test system of data set [2] is phosphorylated TANK-binding kinase 1 (pTBK1). Nature of the data set: UVB-induced pTBK1 in HaCaT cells (ELISA). Format: cell-based. The method, then: pTBK1 is an important signaling molecule in regulating inflammatory responses. HaCaT cells were plated in 6-well plates at a density of ˜100 k/well in HaCaT media (DMEM, optimized 1×(Addex Bio)^+1% pen strep (Gibco)^+5% heat inactivated fetal bovine serum (Gibco)). The cells were then cultured at 37° C. overnight. The next day, the cells were treated with the test compounds. Each test compound was diluted and added to media aliquots to provide desired concentrations. To add the test compound+media mixture, an equivalent amount of media from each well was aspirated and then replenished with the media dosed with the test compound. The cells were then cultured for an additional 72 hours with compound treatment prior to UVB exposure.
The media was then aspirated from the wells, with the remaining cells at least 80% confluent in each well. One mL of PBS was then added to each well, and the plate was then placed under a UVB lamp. A UVB sensor was positioned near the plate to register the plate's exposure. The cells were exposed to the UVB light until they reached 0.1 mJ/cm2. […]
A RIPA lysis buffer (#BP-115, Boston BioProducts) was added to a Halt protease and […] inhibitor cocktail (#78440, ThermoFisher), and the mixture was cooled on ice. […] The protein concentration of the cell lysate was measured using Pierce™ Rapid Gold BCA Protein Assay Kit #AF3225 (ThermoFisher). […]

Data set [3] relates to THP1-Dual KO-TREX1 xenograft tumors. Kind of data set: Altering IFN production in THP1-Dual KO-TREX1 mouse xenografts (Compound 67). Format: in vivo. As to conditions: CB-17 SCID mice, decitabine 5 mg/kg SC, compound 0.3-100 mg/kg PO once daily 5 days, tumors 4 h post-last dose. As to the method: Exemplary Compound 67 was tested for its ability to alter IFN levels in THP1-Dual™ KO-TREX1 xenografts in mice. Assay procedures are described below.
CB-17 SCID female mice were inoculated subcutaneously with 10 million THP1-Dual™ KO-TREX1 cells in 200 μl PBS with Matrigel (1:1) and grouped at N=5 per treatment per sampling timepoint when tumor volume reached an average of 340 mm^3. Six groups were co-administered: (1) decitabine (DAC) at 5 mg/kg SC, once daily, for 5 days, and (2) test compound 67 at one of six doses (0.3 mg/kg PO, 1 mg/kg PO, 3 mg/kg PO, 10 mg/kg PO, 30 mg/kg PO, 100 mg/kg PO) once daily, for 5 days. Two additional groups were administered (1) decitabine and test compound vehicle control SC+PO, once daily, for 5 days, and (2) decitabine at 5 mg/kg SC, once daily, for 5 days. […]
Tumors were harvested 4 h post-last dose administered on day 5, grinded in PBS at 50 Hz for 5 min, kept on ice for 30 min while being vortexed every 5 min. […] Equal amounts of proteins were added to 96-well black plates, and luciferase signal was measured using the QUANTI-Luc™ detection medium according to manufacturer's instructions. Luminescence was measured using the EnVision® 2105 Multimode Plate Reader.
Experimental results are depicted in FIG. 9. […] In FIG. 9, IFN signal was measured in tumors harvested from mice 4 hours after the final decitabine and test compound dosing on day 5.

The subject of another data set is human PBMC. Kind of data set: Decitabine-stimulated human PBMC assay (IFN-β, cell viability). Format: cell-based. The settings on record: 5 days. As to the method:
EasySep buffer (32 mL, […] Technologies, cat. #20144) was used to dilute 8 mL of LRSC buffy coat (from fresh Leukopak) with gentle mixing. The diluted buffy coat (20 mL) was transferred into each of two SepMate 50 tubes, and the tubes were filled with 15 mL of Lyphoprep ([…], cat. #07851) density gradient. The SepMate tubes were then centrifuged at 1200G for 10 minutes at room temperature with the brake on. The top layer of supernatant was collected in SepMate tubes by quickly pouring it into a new 50 mL conical tube. The PBMCs were washed with EasySep buffer ×2 by centrifuging at 300G for 5 minutes. The cells were resuspended in 30 mL of EasySep and centrifuged at 100G for 5 minutes with the brake off, and the platelets were removed. The cells were then resuspended in 6 mL of 1×RBC lysis buffer (Invitrogen) and incubated at 37° C. for 5 minutes. 25 mL of EasySep buffer was then mixed into the tube and centrifuged at 300G for 5 minutes. The cells were resuspended in 10 mL of EasySep buffer and the cells were then counted with Cellometer (AO/PI). The PBMCs were resuspended in RPMI1640 (ThermoFisher)^+10% FBS (HyClone)^+μ/s at 3×10^6/mL. The PBMCs (100 μL, 300 k PBMCs) were then seeded in a 96-well flat bottom microplate (Corning) that had been precoated with 100 μL of anti-CD3 antibody (10 μg/mL in PBS, Biolegend) or PBS at 4° C., one day before the assay was commenced.
To each well the following solutions were added 1) 100 μL of cells (final cell number per well is 3×10^5 cell/well); 2) 25 μL of anti-CD28 antibody at 6×(5 μg/mL final concentration, Biolegend); 3) 25 μL of decitabine at 6×(10 μM final concentration); and 4) Compound in DMSO was dispensed directly into each well with a d300e digital dispenser (Tecan). The final concentration of DMSO for each well was normalized to 0.3%. The plate was incubated at 37° C. without any agitation for 5 days. Samples were collected 120 hours after incubation to determine IFN-0 and IL-2 levels using a U-PLEX Human IFN-β Assay Sector (5PL) (MSD, cat. #K151VIK-2).
After 5 days, the plate was spun down at 100×G for 5 minutes. Supernatants (100 μL) were collected for interferon β(IFN-β) analysis using the MSD assay noted above, and any residual supernatant was stored at −80° C.

Data set [4] concerns THP1-Dual KO-TREX1 xenograft tumors. Kind of data set: Altering IFN production in THP1 TREX1 KO xenografts (compounds 2, 25, 40). Format: in vivo, mouse. As to conditions: CB-17 SCID mice, decitabine 5 mg/kg IP, test compound 10, 30 or 100 mg/kg PO once daily 4 days, tumors 24 h post-last dose. As to the method:
Exemplary compounds 2, 25 and 40 were tested for their ability to alter IFN levels in THP1-Dual™ KO-TREX1 xenografts in mice. Assay procedures are described below.
CB-17 SCID female mice were inoculated subcutaneously with 10 million THP1-Dual™ KO-TREX1 cells in 200 μl PBS with Matrigel (1:1) and grouped when tumor volume reached 350-400 mm^3. Mice bearing THP1-Dual™ KO-TREX1 xenograft tumors were then separated into 5 groups. Three groups were administered: (1) decitabine (DAC) at 5 mg/kg IP, once daily, for 4 days, and (2) test compound at 10, 30, or 100 mg/kg, PO, once daily, for 4 days. One group was administered decitabine (DAC) at 5 mg/kg IP, once daily, for 4 days, and the test compound vehicle control. The final group was administered the vehicle control from both the test compound and the vehicle control from decitabine. Decitabine is formulated in sterile PBS, pH 7.4, and Compound 2, 25, and 40 were formulated in 20% PEG400 in PBS.
Tumors were harvested 24 h post-last dose administered on day 4, ground in PBS at 50 Hz for 5 min, and kept on ice for 30 min while being vortexed every 5 min. […] Equal amounts of proteins were added to 96-well black plates, and luciferase signal was measured using the QUANTI-Luc™ detection medium according to manufacturer's instructions. Luminescence was measured using the EnVision® 2105 Multimode Plate Reader. […]

T1 sequence (O00370 whole entry, looked up): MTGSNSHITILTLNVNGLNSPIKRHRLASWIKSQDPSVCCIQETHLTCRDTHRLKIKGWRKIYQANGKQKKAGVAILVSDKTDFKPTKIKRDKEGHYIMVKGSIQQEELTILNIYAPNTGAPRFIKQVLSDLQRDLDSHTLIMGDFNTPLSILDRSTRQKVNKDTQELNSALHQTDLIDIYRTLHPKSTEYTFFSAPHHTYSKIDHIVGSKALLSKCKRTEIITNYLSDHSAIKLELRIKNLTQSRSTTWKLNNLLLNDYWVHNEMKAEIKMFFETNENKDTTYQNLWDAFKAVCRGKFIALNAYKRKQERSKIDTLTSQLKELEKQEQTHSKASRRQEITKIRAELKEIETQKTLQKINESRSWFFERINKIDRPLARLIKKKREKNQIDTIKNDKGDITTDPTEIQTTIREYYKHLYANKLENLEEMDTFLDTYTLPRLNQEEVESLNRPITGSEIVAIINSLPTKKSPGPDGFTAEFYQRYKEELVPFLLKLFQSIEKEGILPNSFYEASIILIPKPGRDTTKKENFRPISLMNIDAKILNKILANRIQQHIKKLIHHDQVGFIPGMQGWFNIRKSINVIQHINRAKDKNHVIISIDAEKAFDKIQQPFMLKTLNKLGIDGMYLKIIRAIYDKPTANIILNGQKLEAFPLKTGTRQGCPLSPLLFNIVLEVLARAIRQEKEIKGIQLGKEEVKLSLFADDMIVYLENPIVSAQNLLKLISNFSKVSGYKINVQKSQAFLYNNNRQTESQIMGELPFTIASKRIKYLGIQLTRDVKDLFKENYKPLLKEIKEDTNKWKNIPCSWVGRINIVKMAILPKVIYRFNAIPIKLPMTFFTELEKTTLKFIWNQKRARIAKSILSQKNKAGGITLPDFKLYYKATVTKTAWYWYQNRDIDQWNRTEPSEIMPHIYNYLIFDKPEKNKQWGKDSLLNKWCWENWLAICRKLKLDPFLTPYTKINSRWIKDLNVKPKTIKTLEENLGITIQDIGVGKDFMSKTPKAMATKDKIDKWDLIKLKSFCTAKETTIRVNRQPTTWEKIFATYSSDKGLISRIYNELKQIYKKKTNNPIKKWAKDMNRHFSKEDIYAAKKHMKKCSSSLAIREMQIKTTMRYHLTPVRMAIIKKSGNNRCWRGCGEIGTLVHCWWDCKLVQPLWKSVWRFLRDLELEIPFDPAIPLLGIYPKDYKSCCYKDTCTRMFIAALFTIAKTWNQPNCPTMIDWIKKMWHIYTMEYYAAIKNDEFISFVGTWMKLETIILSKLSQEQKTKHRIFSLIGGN

As to `Nc1nc(=O)n([C@H]2C[C@H](O)[C@](CO)(CCl)O2)cc1F` [Compound 14, 4-amino-1-((2R,4S,5R)-5-(chloromethyl)-4-hydroxy-5-(hydroxymethyl)tetrahydrofuran-2-yl)-5-fluoropyrimidin-2(1H)-one], the IC50 in data set [1] was at most 50 nM. Also, the “cytotoxicity, concentration” value in data set [2] is at least 30 µM.

`Nc1nc(=O)n([C@@H]2O[C@@](CO)(CCl)[C@@H](O)[C@@H]2F)cc1F` [Compound 67, 4-amino-1-[(2R,3S,4R,5R)-5-(chloromethyl)-3-fluoro-4-hydroxy-5-(hydroxymethyl)oxolan-2-yl]-5-fluoropyrimidin-2-one]: the concentration for half-maximal inhibition (IC50) in data set [1] is at most 50 nM. Also, the “inhibition of DAC-induced IFN signal in THP1 tumors” value in data set [3] was “dose-response inhibition of DAC-induced IFN signal”.

In the case of `Nc1ccn([C@@H]2O[C@@](CO)(CCl)[C@@H](O)[C@@H]2F)c(=O)n1` [Compound 40, 4-amino-1-((2R,3S,4R,5R)-5-(chloromethyl)-3-fluoro-4-hydroxy-5-(hydroxymethyl)tetrahydrofuran-2-yl)pyrimidin-2(1H)-one], in data set [1], the IC50 was at most 50 nM. In the data set with human PBMC (anti-CD3/anti-CD28, decitabine 10 μM), the IFN-β level result is “inhibition of IFN-0”. The cell viability result in the data set on human PBMC (decitabine 10 μM) is listed as “some cell viability losses at higher concentrations”. Further, the “inhibition of DAC-induced IFN signal in THP1 tumors” value in data set [4] was “potent inhibition of DAC-induced IFN signal”.
